Assay results from patent US9062041B2 (Bayer Intellectual Property GmbH, priority 2011, dated 2015).
pIC50: −log10 of the molar value.

How the values were obtained:
Type in all cases: cell-based
[1] = biological target: EP2 subtype of the human PGE2 receptor (Homo sapiens, UniProt P43116); assay: cAMP antagonism test on the human EP2 receptor (HTRF cAMP detection); settings: hEP2 receptor, read-out: Antagonism hEP2 IC50
Description: 1. Detection of Antagonism to the Human Prostaglandin E2 (Subtype EP2) Receptor Signal
(§1) The binding of PGE2 to the EP2 subtype of the human PGE2 receptor induces the activation of membrane-located adenylate cyclases and leads to the formation of cAMP. In the presence of the phosphodiesterase inhibitor IBMX, the cAMP accumulated owing to this stimulation and released by cell lysis is used in a competitive detection method. In this test, the cAMP present in the lysate competes with a fluorescence-labelled cAMP (cAMP-d2) for binding to an Eu cryptate-labelled anti-cAMP antibody.
(§2) In the absence of cellular cAMP, a maximal signal is produced, which is attributable to the binding of this cAMP-d2 molecule to the antibody. After excitation of the […] at 337 nm, there is a fluorescence resonance energy transfer (FRET) to the Eu cryptate molecules of the anti-cAMP antibody (labelled therewith), followed by a long-lasting emission signal at 665 nm (and at […]). Both signals are measured in a suitable measurement instrument with a time delay, i.e. after decay of the background fluorescence. Any increase in the low FRET signal caused by prostaglandin E2 administration (measured as well ratio change=emission665 nm/emission620 nm*10000) indicates the action of antagonists.
1.2.1. Test for Antagonism (Data Per Well of a 384-Well Plate):
(§3) To a test plate with the substance solutions already added (0.05 μl; 100% DMSO, concentration range from 0.8 nM-16.5 μM) were added 4 μl of a cAMP-d2/cell suspension (625000 cells/ml). After a 20-minute preincubation at room temperature (RT), 2 μl of a 3×PGE2 solution (1.5 nM, in PBS-IBMX) were added and incubated in the presence of the agonist for a further 60 mins at RT (volume: ˜6 μl). Next the reaction was stopped by addition of 2 μl of lysis buffer and incubated for a further 20 mins at RT before the actual measurement (volume: ˜8 μl).

[2] = biological target: EP4 subtype of the human PGE2 receptor (Homo sapiens, UniProt P35408); assay: cAMP antagonism test on the human EP4 receptor (HTRF cAMP detection); settings: selectivity towards hEP4, IC50 measured by cAMP antagonism test
Description: 2. Detection of Antagonism to the Human Prostaglandin E2 (Subtype EP4) Receptor Signal
as §1, with “EP4” for “EP2”
as §2, with “cAMP” for “cAMP,”
2.2.1. Test for Antagonism (Data Per Well of a 384-Well Plate):
as §3, with “(312500” for “(625000”, “(0.3” for “(1.5”

human PGD receptor = biological target: T1, human PGD receptor (Homo sapiens, UniProt Q13258); assay: cAMP antagonism test on the human prostaglandin D receptor (HTRF cAMP detection); settings: selectivity towards hDP, IC50 measured by cAMP antagonism test
T1 sequence (Q13258 1-359): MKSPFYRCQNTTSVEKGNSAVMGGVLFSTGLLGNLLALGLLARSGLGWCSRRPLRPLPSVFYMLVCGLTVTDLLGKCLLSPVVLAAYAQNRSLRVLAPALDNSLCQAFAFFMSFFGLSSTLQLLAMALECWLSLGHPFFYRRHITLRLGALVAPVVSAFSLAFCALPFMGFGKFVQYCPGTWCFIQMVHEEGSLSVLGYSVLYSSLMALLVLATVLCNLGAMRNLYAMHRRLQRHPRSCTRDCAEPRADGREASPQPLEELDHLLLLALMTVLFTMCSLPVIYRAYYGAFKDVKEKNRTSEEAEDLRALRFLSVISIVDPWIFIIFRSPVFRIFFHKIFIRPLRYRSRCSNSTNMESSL
Description: 3. Detection of Antagonism to the Human Prostaglandin D Receptor Signal
as §1, with “of prostaglandin D2” for “of PGE2”, “the” for “the EP2 subtype of the”, “human PGD” for “human PGE2”
as §2
3.2.1. Test for Antagonism (Data Per Well of a 384-Well Plate):
as §3, with “3×PGD2” for “3×PGE2”, “(6” for “(1.5”, “30” for “60”

Chain of EP4 subtype of the human PGE2 receptor (P35408 whole entry): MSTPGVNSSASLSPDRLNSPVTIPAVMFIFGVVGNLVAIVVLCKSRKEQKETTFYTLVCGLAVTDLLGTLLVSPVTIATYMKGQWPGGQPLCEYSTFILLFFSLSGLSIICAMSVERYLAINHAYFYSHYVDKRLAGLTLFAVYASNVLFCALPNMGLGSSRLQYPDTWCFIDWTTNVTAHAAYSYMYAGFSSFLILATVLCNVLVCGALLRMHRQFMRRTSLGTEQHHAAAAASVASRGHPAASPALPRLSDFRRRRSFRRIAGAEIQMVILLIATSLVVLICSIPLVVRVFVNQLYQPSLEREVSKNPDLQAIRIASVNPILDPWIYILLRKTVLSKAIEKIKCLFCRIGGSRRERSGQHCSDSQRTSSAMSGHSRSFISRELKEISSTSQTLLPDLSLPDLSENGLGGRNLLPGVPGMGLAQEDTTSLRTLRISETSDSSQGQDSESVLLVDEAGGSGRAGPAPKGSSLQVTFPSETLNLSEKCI
Chain of EP2 subtype of the human PGE2 receptor (P43116 whole entry): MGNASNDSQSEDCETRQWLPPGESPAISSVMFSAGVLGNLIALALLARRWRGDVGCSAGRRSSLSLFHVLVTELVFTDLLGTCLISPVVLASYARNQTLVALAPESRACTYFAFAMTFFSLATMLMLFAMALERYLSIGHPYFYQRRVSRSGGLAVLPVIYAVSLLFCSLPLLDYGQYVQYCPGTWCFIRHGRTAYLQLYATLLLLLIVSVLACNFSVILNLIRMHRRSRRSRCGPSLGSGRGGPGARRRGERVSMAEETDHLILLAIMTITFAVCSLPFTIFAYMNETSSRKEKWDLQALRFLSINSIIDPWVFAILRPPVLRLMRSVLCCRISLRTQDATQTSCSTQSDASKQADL

| SMILES | pIC50 [1] | Selectivity hEP2/hEP4 [2] | Selectivity hEP2/hDP (human PGD receptor) |
| --- | --- | --- | --- |
| COC(C)CNC(=O)c1ccc2nn(CC3CN(C(=O)c4ccc(Cl)cc4)C3)cc2c1C (single isomer, unassigned) [Example 140, (S or R)-2-{[1-(4-chlorobenzoyl)azetidin-3-yl]methyl}-N-(2-methoxypropyl)-4-methyl-2H-indazol-5-carboxamide] | 7.26 | xxx (xxx > 100) | xxx (xxx > 100) |
| Cc1c(C(=O)NCC2COCCO2)ccc2nn(CC3CN(C(=O)c4ccc(Cl)cc4)C3)cc12 (single isomer, unassigned) [Example 142, (R or S)-2-{[1-(4-chlorobenzoyl)azetidin-3-yl]methyl}-N-(1,4-dioxan-2-ylmethyl)-4-methyl-2H-indazol-5-carboxamide] | 6.15 | xx (xx: 10-100) | xx (xx: 10-100) |
| Cc1c(C(=O)NCC2COCCO2)ccc2nn(CC3CN(C(=O)c4ccc(Cl)cc4)C3)cc12 (single isomer, unassigned) [Example 143, (S or R)-2-{[1-(4-chlorobenzoyl)azetidin-3-yl]methyl}-N-(1,4-dioxan-2-ylmethyl)-4-methyl-2H-indazol-5-carboxamide] | 7.43 | xxx (xxx > 100) | xxx (xxx > 100) |
| Cc1c(C(=O)NCC2CCCCO2)ccc2nn(CC3CN(C(=O)c4ccc(Cl)cc4)C3)cc12 (single isomer, unassigned) [Example 145, (R or S)-2-{[1-(4-chlorobenzoyl)azetidin-3-yl]methyl}-4-methyl-N-(3,4,5,6-tetrahydro-2H-pyran-2-ylmethyl)-2H-indazol-5-carboxamide] | 7.73 | xxx (xxx > 100) | xxx (xxx > 100) |
| Cc1c(C(=O)NCC2CCCCO2)ccc2nn(CC3CN(C(=O)c4ccc(Cl)cc4)C3)cc12 (single isomer, unassigned) [Example 146, (S or R)-2-{[1-(4-chlorobenzoyl)azetidin-3-yl]methyl}-4-methyl-N-(3,4,5,6-tetrahydro-2H-pyran-2-ylmethyl)-2H-indazol-5-carboxamide] | 7.28 | xxx (xxx > 100) | xxx (xxx > 100) |
| Cc1c(C(=O)NCC(C)OC2CCC2)ccc2nn(CC3CN(C(=O)c4ccc(Cl)cc4)C3)cc12 (single isomer, unassigned) [Example 155, (S or R)-2-{[1-(4-chlorobenzoyl)azetidin-3-yl]methyl}-N-[2-(cyclobutyloxy)-propyl]-4-methyl-2H-indazol-5-carboxamide] | 7.53 | xxx (xxx > 100) | xxx (xxx > 100) |
| Cc1c(C(=O)NCC(C)OC2CCC2)ccc2nn(CC3CN(C(=O)c4ccc(Cl)cc4)C3)cc12 (single isomer, unassigned) [Example 156, (R or S)-2-{[1-(4-chlorobenzoyl)azetidin-3-yl]methyl}-N-[2-(cyclobutyloxy)-propyl]-4-methyl-2H-indazol-5-carboxamide] | 6.74 | xx (xx: 10-100) | xx (xx: 10-100) |
| Cc1c(C(=O)NCC2CCCCO2)ccc2nn(CC3CCN(C(=O)c4ccc(Cl)cc4)CC3)cc12 (single isomer, unassigned) [Example 240, (R or S)-2-{[1-(4-chlorobenzoyl)piperidin-4-yl]methyl}-4-methyl-N-(3,4,5,6-tetrahydro-2H-pyran-2-ylmethyl)-2H-indazol-5-carboxamide] | 7.60 | xxx (xxx > 100) | xxx (xxx > 100) |
| Cc1c(C(=O)NCC2CCCCO2)ccc2nn(CC3CCN(C(=O)c4ccc(Cl)cc4)CC3)cc12 (single isomer, unassigned) [Example 241, (S or R)-2-{[1-(4-chlorobenzoyl)piperidin-4-yl]methyl}-4-methyl-N-(3,4,5,6-tetrahydro-2H-pyran-2-ylmethyl)-2H-indazol-5-carboxamide] | 8.04 | xxx (xxx > 100) | xxx (xxx > 100) |
| Cc1c(C(=O)NCC2COCCO2)ccc2nn(CC3CCN(C(=O)c4ccc(Cl)cc4)CC3)cc12 (single isomer, unassigned) [Example 414, (R or S)-2-{[1-(4-chlorobenzoyl)piperidin-4-yl]methyl}-N-(1,4-dioxan-2-ylmethyl)-4-methyl-2H-indazol-5-carboxamide] | 6.65 | xx (xx: 10-100) | xx (xx: 10-100) |
| Cc1c(C(=O)NCC2COCCO2)ccc2nn(CC3CCN(C(=O)c4ccc(Cl)cc4)CC3)cc12 (single isomer, unassigned) [Example 415, (S or R)-2-{[1-(4-chlorobenzoyl)piperidin-4-yl]methyl}-N-(1,4-dioxan-2-ylmethyl)-4-methyl-2H-indazol-5-carboxamide] | 7.67 | xxx (xxx > 100) | xxx (xxx > 100) |
| Cc1c(C(=O)NCC2CCCCO2)ccc2nn(CC3CCN(C(=O)c4ccc(Oc5ccc(C(F)(F)F)cc5)cc4)CC3)cc12 (single isomer, unassigned) [Example 416, (R or S)-4-methyl-N-(3,4,5,6-tetrahydro-2H-pyran-2-ylmethyl)-2-[(1-{4-[4-(trifluoromethyl)phenoxy]benzoyl}piperidin-4-yl)methyl]-2H-indazol-5-carboxamide] | 7.97 | xxx (xxx > 100) | xxx (xxx > 100) |
